According to article PMC7993833, “EDP-938, a novel nucleoprotein inhibitor of respiratory syncytial virus, demonstrates potent antiviral activities in vitro and in a non-human primate model” (PLoS Pathogens, 2021):
Entries after “also recorded” stand apart in the source; their conditions may differ. Where two headings read alike, the source gives them in different places.

Assays:
RSV [1] = tested on: RSV; design: method as in PMID 19707346; conditions: premature infants; monthly injection; cited from earlier work
RSV replicon = tested on: RSV replicon; design: method as in PMID 25451060; conditions: compared to AZ-27; cited from earlier work
[2] = Plasma drug exposure in African Green monkey study; assay type: in vivo, African Green monkeys (Chlorocebus); conditions: both sexes, in vivo, 100 mg/kg BID oral, read-out: mean plasma Ctrough
Source text: The African green monkey model was selected for EDP-938 in vivo studies for its higher level of viral replication versus cotton rats and BALB/c mice. […] In this previous trial, patients who achieved RSV-604 levels in excess of the EC90 experienced a 2.31 log reduction in viral load. […] The lack of antiviral activity observed with RSV-604 could be a function of relatively poor potency compared to EDP-938 (Fig 1) and/or insufficient tissue exposure. While in this study the animals were not sacrificed and thus the drug level in the lung could not be determined, plasma samples were taken at 12h after the last dose (Ctrough) to confirm drug exposure. […] It is reasonable to project that given the same dose or exposure EDP-938 should perform better than RSV-604 in RSV infected patients as well.
A study of EDP-938 and RSV-604 in the African Green monkey (AGM) animal model was performed by BIOQUAL, Inc (Rockville, Maryland). Methods were similar to those run in a study by Ispas et al.. Six (6) male and 6 female AGMs (Chlorocebus) of 4–5 kg were purchased from PrimGen (Hines, Illinois). Each animal was challenged with 2 x 10^5 PFU of RSV A2 viral inoculum (Virapur, San Diego, CA). Four animals (2 per sex) in each group were treated with EDP-938, RSV-604, or vehicle control (0.5% w/v methylcellulose). […]

[3] = tested on: RSV-B VR-955 EDP-938 resistant populations; assay: Susceptibility of EDP-938 resistant RSV-B VR-955 populations; assay type: cell-based, respiratory syncytial virus
[4] = tested on: recombinant RSV A2-line19F, N protein mutants
RSV A2 = assay: RSV-infected African Green monkey model, viral load; assay type: in vivo, African Green monkeys (Chlorocebus); conditions: 100 mg/kg BID oral gavage; BAL
Method: African Green monkeys (AGMs) are permissive for human RSV infection and support a relatively higher level of viral replication compared to cotton rats and BALB/c mice. It has been previously validated as a non-human primate model for assessing in vivo efficacy of potential RSV vaccines and antiviral drugs. To evaluate the activity of EDP-938 in the AGM model, 4 animals each were treated with 100 mg/kg BID with EDP-938, RSV-604, or vehicle control via oral gavage starting 24 hours prior to RSV challenge and continuing for an additional 5 days. Samples were collected through bronchoalveolar lavage (BAL) and nasopharyngeal (NP) swab at various time points to determine viral load. […] Viral load in the NP swab samples was also determined.
A study of EDP-938 and RSV-604 in the African Green monkey (AGM) animal model was performed by BIOQUAL, Inc (Rockville, Maryland). Methods were similar to those run in a study by Ispas et al.. Six (6) male and 6 female AGMs (Chlorocebus) of 4–5 kg were purchased from PrimGen (Hines, Illinois). Each animal was challenged with 2 x 10^5 PFU of RSV A2 viral inoculum (Virapur, San Diego, CA). Four animals (2 per sex) in each group were treated with EDP-938, RSV-604, or vehicle control (0.5% w/v methylcellulose). The animals were dosed via oral gavage twice daily (every 12 hours), starting 24 hours prior to RSV challenge, and then continuing for an additional 5 days (6 total days of dose administration). Bronchoalveolar lavage (BAL) samples and nasopharyngeal (NP) swabs were collected for viral load determination.

RSV [5] = tested on: RSV; design: method as in PMID 31915807; conditions: patients who achieved RSV-604 levels in excess of the EC90; cited from earlier work
RSV-A Long [6] = assay: RT-qPCR viral load assay, RSV-A Long in HEp-2 cells; assay type: cell-based; conditions: human respiratory syncytial virus
[7] = tested on: recombinant RSV A2-line19F, N protein mutants; assay: microbe, parasite or virus in culture; conditions: human respiratory syncytial virus
RSV-A Long [8] = assay: CPE assay (ATPlite), RSV-A Long in HEp-2 cells; assay type: cell-based; conditions: human respiratory syncytial virus
[9] = tested on: GS-5806- and AZ-27-resistant RSV; assay: Activity against GS-5806- and AZ-27-selected resistant viruses; assay type: cell-based, respiratory syncytial virus; conditions: own resistant virus
RSV [10] = assay: Single-round synchronized infection time-of-addition, RT-qPCR endpoint; assay type: cell-based, respiratory syncytial virus; conditions: HEp-2; MOI 3; cold-synchronized; 2x or 20x EC50; added 0-8 hpi; RT-qPCR at 24 hpi
Method: In order to help determine which step of the viral life cycle EDP-938 blocks multiple in vitro time-of-addition studies were performed. In the first study, EDP-938 was administered to cells infected with RSV-A Long at a MOI of 0.1 at 2 hours pre-infection (-2) or 2, 6, or 24 hours post-infection (hpi), and viral CPE evaluated 5 days later. […] A second time-of-addition study explored the ability of EDP-938 to protect not just a population experiencing a spreading infection, but individual cells already infected with RSV. Using a MOI of 3, which infects approximately 95% of all cells, virus was cold-adsorbed to the cells for 1 hour to synchronize infection before transfer to 37°C to induce fusion (marking the 0 hpi time point). Compound was added at times indicated and a 24 hpi RT-qPCR endpoint was employed to constrain viral replication cycle to a single complete cycle.
For single round infection synchronized infection 25,000 HEp-2 cpw seeded 1-day pre-infection. Plates brought to 4°C, viral infection at 3 MOI calculated for 30,000 cpw incubated at 4°C 1hr. Compound added to 0h plate and plates moved to 37°C. Compound added at 2h, 4h, 6h, and 8h post-incubation (when plates moved to 37°C) to appropriate plates. 24 hpi viral copies measured with RT-qPCR as described above.

[11] = HEp-2, recombinant RSV Wild-type (WT), HEp2

Row | Compound | EC50 Fold Change vs. WT ([3]; RSV-B VR-955 Wild-Type) | EC50 Fold Change vs. WT ([4]; recombinant RSV N K107N) | EC50 Fold Change vs. WT ([4]; recombinant RSV N K136R) | EC50 Fold Change vs. WT ([4]; recombinant RSV N L139I) | EC50 Fold Change vs. WT ([4]; recombinant RSV N M109I) | EC50 Fold Change vs. WT ([4]; recombinant RSV N M109K) | EC50 Fold Change vs. WT ([4]; recombinant RSV N M109T) | EC50 Fold Change vs. WT ([4]; recombinant RSV N N105D) | EC50 Fold Change vs. WT ([4]; recombinant RSV N S134T) | EC50 Fold Change vs. WT ([4]; recombinant RSV N V90A) | EC50 Fold Change vs. WT ([4]; recombinant RSV Wild-type (WT)) | EC50 ([7]; HEp-2, recombinant RSV N K107N) | EC50 ([7]; HEp-2, recombinant RSV N K136R) | EC50 ([7]; HEp-2, recombinant RSV N L139I) | EC50 ([7]; HEp-2, recombinant RSV N M109I) | EC50 ([7]; HEp-2, recombinant RSV N M109K) | EC50 ([7]; HEp-2, recombinant RSV N M109T) | EC50 ([7]; HEp-2, recombinant RSV N N105D) | EC50 ([7]; HEp-2, recombinant RSV N S134T) | EC50 ([7]; HEp-2, recombinant RSV N V90A) | other results
1 | palivizumab: monthly injectable monoclonal antibody against RSV | – | – | – | – | – | – | – | – | – | – | – | – | – | – | – | – | – | – | – | – | relative reduction in RSV-associated hospitalizations (RSV [1]): approximately 55%
2 | O=C(Nc1ccccc1F)N[C@H]1N=C(c2ccccc2)c2ccccc2NC1=O [RSV-604] | 1 fold | 1.6 fold | 3.7 fold | 8.3 fold | 0.4 fold | 2.5 fold | 1.6 fold | 2.3 fold | 2.1 fold | 1.2 fold | 1.0 fold | 1810 nM | 4300 nM | 9550 nM | 514 ± 159 nM | 2870 nM | 1860 nM | 2700 nM | 2480 nM | 1420 nM | effect in a replicon assay (RSV replicon): minimal effect; concentration at 12 h after the last dose [2]: 637 nM; effect on RSV viral load vs vehicle control (RSV A2): did not result in significant RSV viral load reduction; also recorded: unable to reduce viral load in a statistically significant manner; reduction in viral load (RSV [5]): 2.31 log; EC50 (RSV-A Long [6]; HEp-2, 120 h): 1980 nM; EC50 (RSV-A Long [6]; HEp-2, read-out: EC50, inhibition of viral replication): ~2000 nM; EC50 [7, 11]: 1150 nM; EC50 (RSV-A Long [8]; HEp-2, 120 h): 1430 nM; EC50 (RSV-A Long [8]; HEp-2, read-out: EC50, RSV-A Long-induced CPE): ~1400 nM
3 | O=C(NC1CC1)c1cc2c(s1)-c1ccccc1N(C(=O)c1ccc(NC(=O)c3cccnc3N3CCC4(CC3)COC4)cc1)CC2 [AZ-27] | – | – | – | – | – | – | – | – | – | – | – | – | – | – | – | – | – | – | – | – | activity against the virus selected for resistance with the same compound [9]: lost all ability to inhibit their resistant viruses
4 | Cc1cn2nc([C@@H]3CCCCN3C(=O)c3cc(Cl)ccc3NS(C)(=O)=O)cc2nc1N1CC[C@H](N)C1 [GS-5806] | 1 fold | 0.7 fold | 4.2 fold | 1.3 fold | 0.8 fold | 0.5 fold | 1.6 fold | 1.1 fold | 1.8 fold | 1.0 fold | 1.0 fold | 0.09 ± 0.07 nM | 0.54 ± 0.34 nM | 0.17 ± 0.15 nM | 0.11 ± 0.09 nM | 0.06 ± 0.05 nM | 0.21 nM | 0.14 ± 0.2 nM | 0.23 ± 0.3 nM | 0.13 nM | EC50 Fold Change vs. WT ([3]; RSV-B VR-955 Population 1, N: M109K, L139Q (dual WT/mutant population)): 0.2 fold; EC50 Fold Change vs. WT ([3]; RSV-B VR-955 Population 2, N: M109T): 0.2 fold; inhibition of viral RNA production by time of addition (RSV [10]): reduced when added at 0 hpi and completely lost when added at 8 hpi; activity against the virus selected for resistance with the same compound [9]: lost all ability to inhibit their resistant viruses; EC50 [7, 11]: 0.13 ± 0.12 nM
